{
  "source": "patent US12415781B2",
  "about": "“Compounds with biguanidyl radical and uses thereof” (INSTITUT CURIE, priority 2018, dated 2025)",
  "key": {"MDA-MB-468 cells [1]": {"tested_on": "MDA-MB-468 cells", "experiment": "EGF-induced epithelial-to-mesenchymal transition (E-cadherin/phalloidin imaging, Western blot of markers, CD44/CD24 flow cytometry)", "format": "cell-based, human", "conditions": "72 h; E-cadherin, phalloidin, fibronectin, vimentin, Zeb1, Snail, Slug, CD44high/CD24low proportion", "procedure": "(§1) Cell culture. Dulbecco's Phosphate-Buffered Saline (14190-094, 500 mL, Gibco), Dulbecco's Modified Eagle Medium (DMEM)/F12 (31331-028, 500 mL, Gibco), DMEM GlutaMAX™ (61965059, Thermo Fisher Scientific), Fetal Bovine Serum (FBS, 10270-106, Gibco), Hydrocortisone (H0888, Sigma Aldrich), Insulin (I0516 or I9278, Sigma Aldrich), PEN-STREP (DE17-602E, BioWhittaker, Lonza), Puromycin dihydrochloride (A11138-02, Life Technologies). MCF-7 (ATCC®, HTB-22™), MDA-MB-231 (ATCC®, HTB-26™), MDA-MB-468 (ATCC®, HTB-132™) and circulating tumor cells were grown in DMEM supplemented with 10% FBS and 1% penicillin (100 U/mL), streptomycin (100 μg/mL) and incubated at 37° C. with 5% CO2. To induce EMT, cells were treated with epidermal growth factor EGF (100 ng/ml) (Miltenyi Biotec) for 72 h. The human mammary epithelial cell line infected with a retrovirus carrying hTERT, SV40 and the oncogenic allele HrasV12, named HMLER cells were a generous gift from A. Puisieux. HMLER cells were cultured in DMEM/F12 supplemented with 10% FBS, 10 μg/mL insulin, 0.5 μg/mL hydrocortisone, 10 ng/ml hEGF, and 0.5 μg/mL puromycin. A mycoplasma test was performed using PCR mycoplasma detection kit (G238, Applied Biological Materials).\nWestern blotting. […] Extracts were incubated at 37° C. for 1 h.\n(§2) Flow cytometry. Metal-specific probes were synthesized as previously described."}, "[2]": {"experiment": "Cyclic voltammetry of iron solutions"}, "MDA-MB-468 cells [3]": {"tested_on": "MDA-MB-468 cells", "experiment": "Mitochondrial morphology", "format": "cell-based, human"}, "[4]": {"tested_on": "MDA-MB-468 triple negative breast cancer cells", "experiment": "Cell viability (CellTiter-Blue), epithelial and mesenchymal (EGF-induced) states, FIG. 1C", "format": "cell-based, human", "conditions": "MDA-MB-468 epithelial/mesenchymal (EGF) states, condition not named", "procedure": "(§3) FIG. 1. […] (FIG. 1B) Dose response viability curves of cancer cells treated as indicated for 72 h. […] (FIG. 1D) Dose response viability curves of HMLER cells in epithelial and mesenchymal states treated as indicated for 72 h. Data points and error bars, mean values and s.d. of three independent biological replicates.\nas §1\n(§4) Cell viability. Cell viability was carried out by plating 1000 cells/well in 96-well plates using CellTiter-Blue® viability assay according to the manufacturer's protocol. Cells were treated as indicated for 72 h. CellTiter-Blue® reagent (G8081, Promega) was added after 72 h treatment and cells were incubated for 1-2 h before recording fluorescence intensities (ex. 560/20 nm; em. 590/10 nm) using a Perkin Elmer Wallac 1420 Victor2 Microplate Reader."}, "[5]": {"experiment": "Cyclic voltammetry of a copper(I) solution", "conditions": "metformin 2 mol equiv, quasi-reversible couples", "description": "Cyclic voltammetry. Cyclic voltammetry experiments were performed with a three-electrode cell under argon. Saturated Calomel Electrode (SCE) was used as reference, a steady Glassy Carbon (GC) electrode of diameter 3 mm was selected as working electrode and a Platinum wire as counterelectrode. All cyclic voltammograms were recorded at RT with a μ-autolab III from Metrohm using Nova software with a scan rate of 0.5 V/s. MeCN was used as a degassed HPLC grade from Carlo Erba. Water was mQ H2O. Solutions with copper were prepared with 0.3 M nBu4NBF4 (180 mg) in MeCN (1.8 mL) and 200 μl of a 20 mM Cu(MeCN)4PF6 stock solution in MeCN (7.4 mg/mL)."}, "[6]": {"tested_on": "triple negative human breast cancer cells and circulating tumor cells (CTC) from patients with colorectal cancer", "experiment": "Cell viability (CellTiter-Blue), dose response of cancer cells, FIG. 1B", "format": "cell-based", "conditions": "72 h, cell line not named", "procedure": "as §3, §1, §4"}, "MDA-MB-468 cells [7]": {"tested_on": "MDA-MB-468 cells", "experiment": "Cell death (Annexin V-FITC/PI) with cell death inhibitors", "format": "cell-based, human", "conditions": "Z-VAD-FMK 50 μM, ferrostatin-1 10 μM, necrostatin-1 20 μM, 72 h; not rescued by ferrostatin-1 and necrostatin-1", "description": "Cell death. […] Data were analyzed by a LSRFortessaTM flow cytometer (BD Biosciences, San Jose, CA) and processed using Cell Quest (BD Biosciences) and FlowJo (FLOWJO, LLC) software."}, "MDA-MB-468 cells [8]": {"tested_on": "MDA-MB-468 cells", "experiment": "Mitochondrial membrane potential (MitoProbe JC-1)", "format": "cell-based, human", "procedure": "Mitochondrial membrane potential. Measurements were performed using the MitoProbe™ JC-1 assay kit (M34152, Thermo Fischer Scientific) according to the manufacturer's protocol. In brief, cells were treated with 2 μM JC-1 or CCCP ([…]) control for the indicated time."}, "MDA-MB-468 cells [9]": {"tested_on": "MDA-MB-468 cells", "experiment": "Mitochondrial copper(II) levels, turn-off fluorescent probe (microscopy, flow cytometry)", "format": "cell-based, human", "conditions": "48 h, reduction in fluorescence, metformin 12 mM, metforminyn 2 mM unless stated otherwise", "procedure": "FIG. 2. […] Scale bar, 10 μm. […] Scale bar, 10 μm.\nas §2\nCopper and iron levels. Cells were incubated with the relevant probes as described in Reagents section. Cells were then analyzed either by fluorescence microscopy or flow cytometry as described in Cell Imaging and Flow Cytometry sections."}, "MDA-MB-468 cells [10]": {"tested_on": "MDA-MB-468 cells", "experiment": "Mitochondrial ROS levels (MitoSOX Red, flow cytometry)", "format": "cell-based, human", "procedure": "ROS levels. Mitochondrial ROS was measured using MitoSOX™ Red Mitochondrial Superoxide Indicator (M36008, Thermo Fisher Scientific) according to the manufacturer's protocol."}},
  "note": "Structures can show the parent of a compound that is named as a salt.",
  "data": [
    {"smiles": "CN(C)C(=N)NC(=N)N", "note": "[metformin, 1,1-Dimethylbiguanide hydrochloride]", "values": [
      {"measurement": "induction of EMT using EGF", "setting": "MDA-MB-468 cells [1]", "result": "prevented"},
      {"measurement": "redox properties of iron (cyclic voltammetry)", "setting": "[2]", "result": "altered the redox properties of this metal"},
      {"measurement": "mitochondrial morphology", "setting": "MDA-MB-468 cells [3]", "result": "alteration of mitochondrial morphology"},
      {"measurement": "IC50", "setting": "[4]; Homo sapiens, MDA-MB-468, 72 h, 1st of four values listed", "result": 24.3, "unit": "mM"},
      {"measurement": "IC50", "setting": "[4]; Homo sapiens, MDA-MB-468, 72 h, 2nd of four values listed", "result": 12.1, "unit": "mM"},
      {"measurement": "IC50", "setting": "[4]; Homo sapiens, MDA-MB-468, 72 h, 3rd of four values listed", "result": 5.5, "unit": "mM"},
      {"measurement": "IC50", "setting": "[4]; Homo sapiens, MDA-MB-468, 72 h, 4th of four values listed", "result": 2.3, "unit": "mM"},
      {"measurement": "redox properties of copper (cyclic voltammetry)", "setting": "[5]", "result": "altered the redox properties of copper"},
      {"measurement": "IC50", "setting": "[6]; Homo sapiens, 1st of four values listed 'respectively'", "result": 12.1, "unit": "mM"},
      {"measurement": "IC50", "setting": "[6]; Homo sapiens, 2nd of four values listed 'respectively'", "result": 15.1, "unit": "mM"},
      {"measurement": "IC50", "setting": "[6]; Homo sapiens, 3rd of four values listed 'respectively'", "result": 7.7, "unit": "mM"},
      {"measurement": "IC50", "setting": "[6]; Homo sapiens, 4th of four values listed 'respectively'", "result": 10.9, "unit": "mM"},
      {"measurement": "rescue of compound-induced cell death by inhibitors", "setting": "MDA-MB-468 cells [7]", "result": "rescued by the caspase 3 inhibitor Z-VAD-FMK"},
      {"measurement": "mitochondrial membrane potential", "setting": "MDA-MB-468 cells [8]", "result": "reduction of mitochondrial membrane potentials"},
      {"measurement": "mitochondrial levels of copper(II)", "setting": "MDA-MB-468 cells [9]", "result": "increased levels of copper(II)"},
      {"measurement": "mitochondrial reactive oxygen species (ROS) levels", "setting": "MDA-MB-468 cells [10]", "result": "increased levels of reactive oxygen species (ROS)"}
    ]},
    {"smiles": "C#CCCN(C)C(=N)NC(=N)N", "note": "[metforminyn]", "values": [
      {"measurement": "induction of EMT using EGF", "setting": "MDA-MB-468 cells [1]", "result": "prevented"},
      {"measurement": "mitochondrial morphology", "setting": "MDA-MB-468 cells [3]", "result": "alteration of mitochondrial morphology"},
      {"measurement": "IC50", "setting": "[4]; 72 h, 1st of four values listed", "result": 12.6, "unit": "mM"},
      {"measurement": "IC50", "setting": "[4]; 72 h, 2nd of four values listed", "result": 5.2, "unit": "mM"},
      {"measurement": "IC50", "setting": "[4]; 72 h, 3rd of four values listed", "result": 0.8, "unit": "mM"},
      {"measurement": "IC50", "setting": "[4]; 72 h, 4th of four values listed", "result": 0.9, "unit": "mM"},
      {"measurement": "IC50", "setting": "[6]; 1st of four values listed 'respectively'", "result": 2.5, "unit": "mM"},
      {"measurement": "IC50", "setting": "[6]; 2nd of four values listed 'respectively'", "result": 4.7, "unit": "mM"},
      {"measurement": "IC50", "setting": "[6]; 3rd of four values listed 'respectively'", "result": 2.8, "unit": "mM"},
      {"measurement": "IC50", "setting": "[6]; 4th of four values listed 'respectively'", "result": 3.5, "unit": "mM"},
      {"measurement": "rescue of compound-induced cell death by inhibitors", "setting": "MDA-MB-468 cells [7]", "result": "rescued by the caspase 3 inhibitor Z-VAD-FMK"},
      {"measurement": "mitochondrial membrane potential", "setting": "MDA-MB-468 cells [8]", "result": "reduction of mitochondrial membrane potentials"},
      {"measurement": "mitochondrial levels of copper(II)", "setting": "MDA-MB-468 cells [9]", "result": "increased levels of copper(II)"},
      {"measurement": "mitochondrial reactive oxygen species (ROS) levels", "setting": "MDA-MB-468 cells [10]", "result": "increased levels of reactive oxygen species (ROS)"}
    ]}
  ]
}
